Results: publication PMC6021681, “Characterization of the Anti-Hepatitis C Virus Activity of New Nonpeptidic Small-Molecule Cyclophilin Inhibitors with the Potential for Broad Anti-Flaviviridae Activity” (Antimicrobial Agents and Chemotherapy, 2018)
Where two headings read alike, the source gives them in different places.

What was measured:
CypA = target: T1, CypA (Homo sapiens, UniProt P62937); experiment: TR-FRET competitive binding assay against labeled CsA
T1 construct: purchased Selcia, Ongar, UK
T1 sequence (P62937 whole entry): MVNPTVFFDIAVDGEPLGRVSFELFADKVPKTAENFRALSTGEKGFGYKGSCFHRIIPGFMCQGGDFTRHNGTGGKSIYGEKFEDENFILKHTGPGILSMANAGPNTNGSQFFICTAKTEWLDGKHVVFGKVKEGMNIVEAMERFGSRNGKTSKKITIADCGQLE

CypA-NS5A interaction = CypA-NS5A interaction (Homo sapiens, UniProt P62937); assay type: binding
CypA-NS5A interaction, sequence (P62937 whole entry): as above

[1] = test system: genotype 1b HCV-SGR(L31V/Y93H); experiment: microbe, parasite or virus in culture; assay type: cell-based, hepatitis C virus
genotype 5a HCV-SGR = experiment: genotype 5a HCV-SGR, stable Huh7.5 cells, luciferase; assay type: cell-based, hepatitis C virus; conditions: 48 h, read-out: Mean EC50 ± SD, HCV-SGR Genotype 5a
ZIKV strain MR766 = experiment: ZIKV replication in Huh7 cells, RT-qPCR; assay type: cell-based, Zika virus
genotype 1a HCV-SGR = experiment: microbe, parasite or virus in culture; assay type: cell-based, hepatitis C virus
[2] = test system: Infectious J6/JFH1 HCV genotype 2a/2a; experiment: infectious HCV model, luciferase; assay type: cell-based, hepatitis C virus; conditions: read-out: Mean EC50 ± SD, Infectious J6/JFH1 HCV genotype 2a/2a
genotype 1b HCV-SGR = experiment: microbe, parasite or virus in culture; assay type: cell-based, hepatitis C virus
Protocol: Candidate resistance-associated substitutions (RASs) were introduced into a wild-type genotype 1b HCV-SGR containing the luciferase reporter gene by means of site-directed mutagenesis (QuikChange II XL site-directed mutagenesis kit; Agilent Technologies, Santa Clara, CA, USA). Ninety-six hours after RNA transfection, the susceptibility of the RAS-containing HCV-SGR to compound 31 was determined by measurement of luciferase activity and comparison to wild-type HCV-SGR susceptibility. The replication capacity of the RAS-containing HCV-SGR was assessed by comparing luciferase activities at 4 h and 96 h posttransfection and expressed as a percentage of the wild-type replication capacity.

genotype 2a HCV-SGR = experiment: genotype 2a HCV-SGR, transient, luciferase; conditions: read-out: Mean EC50 ± SD, HCV-SGR Genotype 2a
[3] = test system: genotype 1b HCV-SGR E442G; experiment: microbe, parasite or virus in culture; assay type: cell-based, hepatitis C virus; conditions: for EC50: 96 h, read-out: Mean EC50 ± SD, E442G
Protocol: (§1) Candidate resistance-associated substitutions (RASs) were introduced into a wild-type genotype 1b HCV-SGR containing the luciferase reporter gene by means of site-directed mutagenesis (QuikChange II XL site-directed mutagenesis kit; Agilent Technologies, Santa Clara, CA, USA). […] The replication capacity of the RAS-containing HCV-SGR was assessed by comparing luciferase activities at 4 h and 96 h posttransfection and expressed as a percentage of the wild-type replication capacity.

[4] = test system: genotype 1b HCV-SGR L303P; experiment: microbe, parasite or virus in culture; assay type: cell-based, hepatitis C virus; conditions: for EC50: 96 h, read-out: Mean EC50 ± SD, L303P
Protocol: as §1

[5] = test system: genotype 1b HCV-SGR K308I; experiment: microbe, parasite or virus in culture; assay type: cell-based, hepatitis C virus; conditions: for EC50: 96 h, read-out: Mean EC50 ± SD, K308I
Protocol: as §1

[6] = test system: genotype 1b HCV-SGR R304W; experiment: microbe, parasite or virus in culture; assay type: cell-based, hepatitis C virus; conditions: for EC50: 96 h, read-out: Mean EC50 ± SD, R304W
Protocol: as §1

[7] = test system: genotype 1b HCV-SGR I133V; experiment: microbe, parasite or virus in culture; assay type: cell-based, hepatitis C virus; conditions: for EC50: 96 h, read-out: Mean EC50 ± SD, I133V
Protocol: as §1

[8] = test system: genotype 1b HCV-SGR Y321H; experiment: microbe, parasite or virus in culture; assay type: cell-based, hepatitis C virus; conditions: for EC50: 96 h, read-out: Mean EC50 ± SD, Y321H
Protocol: as §1

[9] = test system: genotype 1b HCV-SGR D320E; experiment: microbe, parasite or virus in culture; assay type: cell-based, hepatitis C virus; conditions: for EC50: 96 h, read-out: Mean EC50 ± SD, D320E
Protocol: as §1

genotype 3a HCV-SGR = experiment: genotype 3a HCV-SGR, stable Huh7.5 cells, luciferase; assay type: cell-based, hepatitis C virus; conditions: 48 h, read-out: Mean EC50 ± SD, HCV-SGR Genotype 3a
[10] = test system: chimeric genotype 2a/4a HCV-SGR; experiment: chimeric genotype 2a/4a HCV-SGR, transient, luciferase; conditions: read-out: Mean EC50 ± SD, HCV-SGR Genotype 2a/4a
WNV = WNV replication; assay type: cell-based, West Nile virus; conditions: 50 μM the highest concentration tested, data not shown
YFV strain Dakar HD 1279 = assay type: cell-based, yellow fever virus; conditions: Huh7 cells, RT-qPCR at 48 h postinfection; read-out: EC50, YFV replication
CypA PPIase activity = CypA PPIase activity (Homo sapiens, UniProt P62937); experiment: CypA PPIase enzyme assay, chymotrypsin coupled; conditions: read-out: PPIase inhibition IC50, 20°C
CypA PPIase activity, sequence (P62937 whole entry): as above

[11] = target: CypA-NS5A-D320E interaction (Homo sapiens, UniProt P62937); assay type: binding; conditions: NS5A-D320E-Rluc, CypA-6His on Ni-NTA beads
CypA-NS5A-D320E interaction, sequence (P62937 whole entry, stated change not applied): as the sequence (P62937 whole entry) above

[12] = test system: DENV-4 strain Dominica 814669; experiment: DENV replication in Huh7 cells, RT-qPCR; assay type: cell-based, dengue virus; conditions: RT-qPCR at 48 h postinfection
Huh7 cells = conditions: read-out: 50% cytotoxic concentration (CC50); flavivirus experiments
JEV = JEV replication; assay type: cell-based, Japanese encephalitis virus; conditions: data not shown
Huh7.5 cells = experiment: cytotoxicity MTT assay; assay type: cell-based, Human; conditions: at its effective concentration, 3 days
[13] = test system: HCV genotype 1b bicistronic replicon (I389-Neo/NS3-3'/5.1); experiment: genotype 1b HCV-SGR replicon model, stable Huh7.5 cells, RT-qPCR; assay type: cell-based, hepatitis C virus; conditions: 3 days
Protocol: of at least two independent measurements.
The cells were treated for
without G418. […] HCV‐SGR RNA
results were normalized to GAPDH.
replicates in cell culture.
antiviral activities. Nat Commun 7:12777.

[14] = test system: full-length infectious HCV genotype 3a (DBN-3acc); experiment: full-length DBN-3acc replication, RT-qPCR; assay type: cell-based, hepatitis C virus; conditions: at 10 μM, Huh7.5 cells, 120 hours
Description: Madison, Wisconsin, USA).
(Promega) and quantified by RT‐qPCR.
(1 mi n ). […] The percent inhibition of […]

## C/C=C/C[C@@H](C)[C@@H](O)[C@H]1C(=O)N[C@@H](CC)C(=O)N(C)[C@H](C)C(=O)N(CC)[C@@H](C(C)C)C(=O)N[C@@H](C(C)C)C(=O)N(C)[C@@H](CC(C)C)C(=O)N[C@@H](C)C(=O)N[C@H](C)C(=O)N(C)[C@@H](CC(C)C)C(=O)N(C)[C@@H](CC(C)C)C(=O)N(C)[C@@H](C(C)C)C(=O)N1C [ALV, Alisporivir, reference compound]
CypA; purified CypA
  Kd: < 5 nM
CypA-NS5A interaction
  disruption of the CypA-NS5A interaction: disrupted
[1]; Hepatitis C virus, 84 h, read-out: Mean EC50 ± SD, L31V/Y93H
  EC50: 10 ± 1 nM
Genotype 5a HCV-SGR; Hepatitis C virus
  EC50: 10 ± 10 nM
ZIKV strain MR766; data not shown
  inhibition of ZIKV replication: did not inhibit
Genotype 1a HCV-SGR; Hepatitis C virus, stable Huh7.5 cells, 48 h, luciferase, read-out: Mean EC50 ± SD, HCV-SGR Genotype 1a
  EC50: 40 ± 30 nM
[2]; Hepatitis C virus, Huh7.5, 72 h
  EC50: 30 ± 2 nM
Genotype 1b HCV-SGR; Hepatitis C virus, transient, Huh7.5 cells, 96 h posttransfection, luciferase, read-out: Mean EC50 ± SD, HCV-SGR Genotype 1b
  EC50: 30 ± 10 nM
Genotype 1b HCV-SGR; Hepatitis C virus, wild-type genotype 1b HCV-SGR, read-out: Mean EC50 ± SD, WT
  EC50: 30 ± 10 nM
Genotype 2a HCV-SGR; Hepatitis C virus, GETYPE2A, Huh7.5, 48 h
  EC50: 20 ± 10 nM
[3]; Hepatitis C virus
  EC50: 30 ± 4 nM
[4]; Hepatitis C virus
  EC50: 40 ± 10 nM
[5]; Hepatitis C virus
  EC50: 40 ± 4 nM
[6]; Hepatitis C virus
  EC50: 30 ± 4 nM
[7]; Hepatitis C virus
  EC50: 20 ± 1 nM
[8]; Hepatitis C virus
  EC50: 60 ± 20 nM
[9]; Hepatitis C virus
  EC50: 120 ± 50 nM
Genotype 3a HCV-SGR; Hepatitis C virus
  EC50: 20 ± 10 nM
[10]; Hepatitis C virus, GETYPE2A, Huh7.5, 72 h
  EC50: 10 ± 2 nM

## CSc1ccccc1C1CCCN1C(=O)C(NC(=O)NCc1ccc(N)cc1)c1ccccc1 (centres unmarked) [Compound C31]
CypA; read-out: Kd, displacement of labeled CsA from CypA, purified CypA
  Kd: 105 nM
CypA-NS5A interaction; WT-NS5A-Rluc, CypA-6His on Ni-NTA beads
  disruption of the CypA-NS5A interaction: disrupted
WNV
  EC50: > 50000 nM
YFV strain Dakar HD 1279
  EC50: 27200 ± 4700 nM
CypA PPIase activity
  IC50: 100 ± 10 nM
[11]
  disruption of the NS5A-D320E interaction with CypA: fully sensitive
[12]
  EC50: 7300 ± 3500 nM
Huh7 cells
  CC50: ≥ 100000 nM
JEV
  effect against JEV replication: no effect
Genotype 5a HCV-SGR
  EC50: 1200 ± 830 nM
ZIKV strain MR766; Huh7 cells, RT-qPCR at 48 h postinfection
  EC50: 48000 ± 5600 nM
Genotype 1a HCV-SGR; stable Huh7.5 cells, 48 h, luciferase, read-out: Mean EC50 ± SD, HCV-SGR Genotype 1a
  EC50: 3800 ± 1900 nM
Huh7.5 cells
  cell viability: did not affect
[2]; Huh7.5 cells, 72 h, luciferase
  EC50: 2800 ± 400 nM
Genotype 1b HCV-SGR; EC50 relative to wild type
  Fold change, WT: 1.0
Genotype 1b HCV-SGR; transient, Huh7.5 cells, 96 h posttransfection, luciferase, read-out: Mean EC50 ± SD, HCV-SGR Genotype 1b
  EC50: 2950 ± 600 nM
Genotype 1b HCV-SGR; wild-type genotype 1b HCV-SGR, read-out: Mean EC50 ± SD, WT
  EC50: 2950 ± 600 nM
Genotype 2a HCV-SGR; transient, Huh7.5 cells, 48 h posttransfection, luciferase
  EC50: 2300 ± 1200 nM
[3]; EC50 relative to wild type
  Fold change, E442G: 1.0
[3]; genotype 1b HCV-SGR
  EC50: 2990 ± 700 nM
[4]; EC50 relative to wild type
  Fold change, L303P: 1.0
[4]; genotype 1b HCV-SGR
  EC50: 3050 ± 400 nM
[5]; EC50 relative to wild type
  Fold change, K308I: 0.9
[5]; genotype 1b HCV-SGR
  EC50: 2590 ± 200 nM
[6]; EC50 relative to wild type
  Fold change, R304W: 0.8
[6]; genotype 1b HCV-SGR
  EC50: 2470 ± 200 nM
[7]; EC50 relative to wild type
  Fold change, I133V: 0.9
[7]; genotype 1b HCV-SGR
  EC50: 2750 ± 200 nM
[8]; EC50 relative to wild type
  Fold change, Y321H: 1.8
[8]; genotype 1b HCV-SGR
  EC50: 5410 ± 400 nM
[9]; EC50 relative to wild type
  Fold change, D320E: 3.0
[9]; genotype 1b HCV-SGR
  EC50: 8730 ± 1100 nM
[13]
  EC50: 400 ± 10 nM
Genotype 3a HCV-SGR
  EC50: 7760 ± 1570 nM
[14]
  maximal HCV RNA reduction, DBN-3acc RNA replication: 244 fold
[10]; transient, Huh7.5 cells, 72 h posttransfection, luciferase
  EC50: 1400 ± 1100 nM

## Nc1ccc(CNC(=O)NCC(=O)N2CCCC2c2cccc3ccccc23)cc1 (centres unmarked) [Compound C32]
CypA PPIase activity
  IC50: 1490 ± 450 nM
[13]
  EC50: 9010 ± 2040 nM

## CSc1ccccc1C1CCCN1C(=O)C(C)NC(=O)NCc1ccc(N)cc1 (centres unmarked) [Compound C33, 1‐[(4‐aminophenyl)methyl]‐3‐(1‐{2‐[2‐(methylsylfanyl)phenyl]pyrrolidin‐1‐yl}‐1‐oxopropan‐2‐yl)urea]
CypA PPIase activity
  IC50: 3080 ± 1170 nM
[13]
  EC50: 12900 ± 1200 nM

## CSCCC(NC(=O)NCc1ccc(N)cc1)C(=O)N1CCCC1c1ccccc1SC (centres unmarked) [Compound C34]
[13]
  EC50: 1630 ± 380 nM

## Nc1ccc(CNC(=O)NCC(=O)N2CCCC2c2ccccc2Br)cc1 (centres unmarked) [Compound C35]
[13]
  EC50: 4510 ± 520 nM

## COc1ccccc1C1CCCN1C(=O)CNC(=O)NCc1ccc(N)cc1 (centres unmarked) [Compound C36]
CypA PPIase activity
  IC50: 5030 ± 1810 nM
[13]
  EC50: 19700 ± 2900 nM

## COC(=O)N[C@H](C(=O)N1CC2(CC2)C[C@H]1c1nc(-c2ccc3c(c2)C(F)(F)c2cc(-c4ccc5[nH]c([C@@H]6[C@H]7CC[C@H](C7)N6C(=O)[C@@H](NC(=O)OC)C(C)C)nc5c4)ccc2-3)c[nH]1)C(C)C [LDV, ledipasvir]
[1]; genotype 1b HCV-SGR, versus wild type, data not shown
  increase in the LDV EC50, L31V and Y93H substitutions: 714 fold
Genotype 1a HCV-SGR; Hepatitis C virus, Huh7.5, read-out: EC50 used in the combination study, genotype 1a HCV-SGR
  EC50: 0.01 nM
